Reference: patent US20220226339A1, “INHIBITATION OF ACID LIPASE FOR CANCER THERAPY” (Heinrich-Heine-Universität Düsseldorf, priority 2019, published 2022)

Columns and labels:
MDA-MB-231 cancer cells [1] = experiment: Cell proliferation of MDA-MB-231 cancer cells (CellTiterGlo); type: cell-based, human; details: MDA-MB-231, 3 days, 15% FCS RPMI, Lalistat concentrations descending from 50 μM, non-cell-toxic range
Protocol: Cell proliferation was ascertained using Cell-TiterGlo®.
MDA-MB-231 cancer cells were incubated with Lalistat 2 (selective LAL inhibitor) or the formulation control (mock).
MDA-MB-231 cancer cells were incubated with Lalistat 2 (selective LAL inhibitor) or the formulation control (mock). For the formulation control, […] alone was used with the same concentration of DMSO as for Lalistat 2. 24 hours after seeding, the cancer cells were incubated for 3 days in 15% FCS-containing RPMI medium having concentrations of Lalistat descending from 50 μM or the corresponding DMSO concentration as control. Subsequently, CellTiterGlo® (Promega) was used to quantify the number of vital cancer cells.

MDA-MB-231 cancer cells [2] = experiment: Relative expression of tumor stem cell markers and vimentin by quantitative PCR; type: cell-based, human; details: MDA-MB-231, 6 days, 50 μM Lalistat vs 0.05% DMSO
Protocol: 24 hours after seeding, MDA-MB-231 cancer cells were incubated for 6 days in 15% FCS-containing RPMI medium containing 50 μM Lalistat or formulation control (0.05% DMSO). Subsequently, the relative expression of the (A-C) tumor stem cell markers ALDH1, CD44 and the ratio CD44/CD24 and of the (D) mesenchymal marker vimentin was analyzed by means of quantitative PCR. The values were normalized to the housekeepers GAPDH or HRPT1. The target was amplified in a singleplex assay using “SYBR Green”.
The results of two independent experiments with three biological replicates in each case are depicted. Significance difference compared to formulation control: ALDH: 0.0026 (GAPDH), 0.0004 (HRPT1); CD44: […] (GAPDH/HRPT1); CD44/CD24: <0.01

[3] = system: PD-L1 expression on cancer cells; experiment: PD-L1 expression on cancer cells after Lalistat treatment; type: cell-based

O=C(Oc1nsnc1N1CCCCC1)N1CCCCC1 [Lalistat 2, 4-(piperidin-1-yl)-1,2,5-thiadiazol-3-yl piperidine-1-carboxylate]
cell proliferation compared to formulation control (MDA-MB-231 cancer cells [1]): antiproliferative effect | cell proliferation compared to formulation control (MDA-MB-231 cancer cells [1]; listed as Lalistat): distinct inhibition of cell proliferation | expression of mesenchymal marker vimentin (MDA-MB-231 cancer cells [2]; qPCR): reduction in the expression | expression of (tumor) stem cell markers (ALDH1, CD44, ratio CD44/CD24) (MDA-MB-231 cancer cells [2]; qPCR normalized to GAPDH or HRPT1): reduction in the expression | PD-L1 expression on cancer cells [3]: reduced PD-L1 expression
